Literature values in PMC7664160 (ACS infectious diseases, 2020).

Tested on: intracellular C. neoformans

Row | SMILES | fungicidal activity against intraphagocytic C. neoformans
1 | OC(Cn1cncn1)(Cn1cncn1)c1ccc(F)cc1F [fluconazole] | neither fluconazole nor amphotericin B have fungicidal activity
2 | C[C@@H]1[C@H](O)[C@@H](C)/C=C/C=C/C=C/C=C/C=C/C=C/C=C/[C@H](O[C@@H]2O[C@H](C)[C@@H](O)[C@H](N)[C@@H]2O)C[C@@H]2O[C@](O)(C[C@@H](O)C[C@@H](O)[C@H](O)CC[C@@H](O)C[C@@H](O)CC(=O)O[C@H]1C)C[C@H](O)[C@H]2C(=O)O [amphotericin B] | neither fluconazole nor amphotericin B have fungicidal activity
